Common to all, as to assay: NCI-60 cell line screen, 48 h
In test [1] the test system is A498 renal.
The subject of test [2] is A549 NSCLC.
Test [3] relates to HCT-15 colon.
Test [4] deals with HOP-92 NSCLC.
For test [5], the system named is HS 578T breast.
Test [6] relates to HT29 colon.
Test [7] concerns NCI-H460 lung.
In test [8] the test system is SF-268 CNS.

Structures are written as SMILES.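 Compound exposure: 48 hours, 5 concentrations, 96-well plates. Here, GI50 denotes the concentration required for 50% inhibition of growth. TGI: total growth inhibition.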 Where only a bound is given, the exact number is not on record here.

As for `CCOC(=O)C1=C(C)N(Cc2ccc(Cl)cc2Cl)C2(O)C=CC(=O)C3=C(O)c4ccccc4C(=O)C312` (centres undefined), the GI50 in test [1] is 23700 nM; in test [2], 9.35 µM; in test [3], 1.82 µM; in test [4], 1230 nM; in test [5], 16.1 µM; in test [6], 5.04 µM. Moreover, the GI50 was 5.55 µM in test [7] and 6.72 µM in test [8]. Further, the TGI in test [1] was 59.4 µM; in test [2], more than 100 µM; in test [3], 13.5 µM; in test [4], 5.48 µM; in test [5], 96.3 µM; in test [6], more than 100 µM. For the same molecule, the values for the TGI in test [7] and in test [8] were 43.2 µM and 37.5 µM, respectively.
As for `O=C1/C(=C/c2ccc(Cl)cc2)CCC/C1=C\c1ccc(Cl)cc1`, the GI50 was 2300 nM in test [1]; 3.63 µM in test [2]; 3.39 µM in test [3]; more than 100000 nM in test [4]; 3.43 µM in test [5]; 2.7 µM in test [6]. In addition, the results for the GI50 in test [7] and in test [8] were 6.93 µM and 3.24 µM, respectively. Besides, the TGI was 8.69 µM in test [1]; more than 100 µM in test [2]; more than 100 µM in test [3]; more than 100 µM in test [4]; more than 100 µM in test [5]; 6.37 µM in test [6]. The TGI in test [7] was more than 100 µM; in test [8], 12.7 µM.
`CCc1ccc(C(=Nc2ccc(N(C)C(=O)CN3CCN(C)CC3)cc2)c2c(O)[nH]c3ccc(C(=O)OC)cc23)cc1`: the GI50 in test [1] was 398 nM; in test [2], 0.319 µM; in test [3], 0.277 µM; in test [4], 1230 nM; in test [5], 0.169 µM; in test [6], 0.247 µM. The values for the GI50 in test [7] and in test [8] were 0.748 µM and 1.18 µM, respectively. Also, the TGI in test [1] stood at 1.96 µM; in test [2], 1.64 µM; in test [3] it was 1.25 µM; in test [4], 2.63 µM; in test [5] it was 1.1 µM; in test [6], 3.17 µM. For the same molecule, the TGI in test [7] stood at 2.21 µM; in test [8], 2.8 µM.
In the case of `CC1(N)CCN(c2cnc(-c3cccc(Cl)c3Cl)c(N)n2)CC1`, the GI50 is 2490 nM in test [1]; 16.6 µM in test [2]; 28.3 µM in test [3]; 553 nM in test [4]; 13.3 µM in test [5]; 26.7 µM in test [6]. The GI50 in test [7] was 32.7 µM; in test [8] it was 22.7 µM. Also, the TGI in test [1] was 12 µM; in test [2] it was more than 100 µM; in test [3], more than 100 µM; in test [4], 5.44 µM; in test [5] it was 64 µM; in test [6] it was more than 100 µM. The TGI in test [7] and in test [8] was more than 100 µM each time.
Take `CCCN(CCC)c1ccc(/C=N/NC(=O)c2cccnc2)c(OC)c1`: the GI50 in test [1] was 2270 nM; in test [2], 26.6 µM; in test [3], 27.5 µM; in test [4], 13400 nM; in test [5], 21.7 µM; in test [6], 15.8 µM. For the same molecule, the GI50 in test [7] is 24.1 µM; in test [8], 26 µM. The TGI was 17.9 µM in test [1]; more than 100 µM in test [2]; more than 100 µM in test [3]; 61.8 µM in test [4]; 99.3 µM in test [5]; 55 µM in test [6]. The TGI in test [7] turned out to be 75.4 µM; in test [8], 88.7 µM.
For `Fc1cccc(-n2ccc(-c3ccccc3)nc2=S)c1`, the GI50 is 17200 nM in test [1]; 31.5 µM in test [2]; 17.3 µM in test [3]; 862 nM in test [4]; 17.7 µM in test [5]; 57.3 µM in test [6]. Further, the values for the GI50 in test [7] and in test [8] were more than 100 µM and 32.3 µM, respectively. Also, the TGI is 33.3 µM in test [1]; more than 87.3 µM in test [2]; 36.1 µM in test [3]; 41.6 µM in test [4]; 37.4 µM in test [5]; more than 100 µM in test [6]. Moreover, the TGI in test [7] and in test [8] was more than 100 µM each time.
Turning to `O=C1C=CC(=O)N1c1cccc(N2C(=O)C=CC2=O)c1`, the GI50 in test [1] is 16200 nM; in test [2], 19.3 µM; in test [3], 1.91 µM; in test [4], 1750 nM; in test [5], 2.17 µM; in test [6], 2.3 µM. Besides, the GI50 in test [7] was 18.3 µM; in test [8], 7.09 µM. Moreover, the TGI in test [1] worked out at 31.1 µM; in test [2], 45.4 µM; in test [3], 3.93 µM; in test [4], 3.78 µM; in test [5], 5.73 µM; in test [6], 4.94 µM. Further, the TGI in test [7] came out at 38.6 µM; in test [8] it was 19.8 µM.
Regarding `CCN(CC)C(=S)SCN1C(=O)c2ccccc2S1(=O)=O`, the GI50 in test [1] is 42900 nM; in test [2], 41.2 µM; in test [3], 50.9 µM; in test [4], more than 100000 nM; in test [5] it was more than 100 µM; in test [6] it was 25.1 µM. In addition, the GI50 in test [7] was 0.928 µM; in test [8], 34.2 µM. In addition, the TGI in test [1] is more than 100 µM; in test [2] it was more than 100 µM; in test [3], more than 100 µM; in test [4], more than 100 µM; in test [5], more than 100 µM; in test [6], more than 74.9 µM. For the same molecule, the TGI in test [7] and in test [8] was more than 100 µM in each case.
As for `Cc1cc(N2CCOCC2)nc(N(CCCNc2ccnc3cc(Cl)ccc23)Cc2ccco2)n1`, the GI50 in test [1] was 2200 nM; in test [2], 3.77 µM; in test [3], 2.37 µM; in test [4], 1560 nM; in test [5], 4.03 µM; in test [6], 1.83 µM. Moreover, the values for the GI50 in test [7] and in test [8] were 3.28 µM and 3.43 µM, respectively. The TGI in test [1] came to 6.04 µM; in test [2] it was 13.6 µM; in test [3] it was 11.6 µM; in test [4], 7.77 µM; in test [5], 25.7 µM; in test [6], 8.57 µM. Moreover, the values for the TGI in test [7] and in test [8] were 13.7 µM and 16.1 µM, respectively.

For the origin of these results see PubChem BioAssay (NCI).
